Assay [1] has as its target β2 receptors, guinea pig trachea (Cavia porcellus, UniProt Q8K4Z4). Put plainly: cell-based. As to the method:
Each tissue was suspended between a fixed glass rod and a Statham Universal Transducer connected to a Beckman recorder. Atria were allowed to beat spontaneously under a loading tension of approximately 0.5 gm. Intrinsic depressant or stimulant activity was determined for each compound by progressively increasing concentrations in the tissue baths at 60-minute intervals. Tissues were not washed between increments. […] Changes in rate in response to isoproterenol, a standard β-receptor agonist, were measured in the absence and presence of test compounds. Spiral strips of guinea pig trachea were suspended under 5 gm resting tension and incubated with phentolamine, tropolone and cocaine. Active tension was generated by addition of carbachol (3.0×10^-7 M) and decreases in tension in response to isoproterenol were quantitated. Cumulative concentration-response curves were produced with isoproterenol both before and after 60-minute incubation of test compounds with atria and trachea. […] The blocking potency of test compounds was estimated by computing pA2 values (-log KB) by the method of Furchgott, the Pharmacological Differentiation of Adrenergic Receptors, Ann. […] A ratio greater than one indicates cardioselectivity. Test drugs were dissolved in distilled water and added to the bath (30 ml) in a volume of 10 or 100 μl.

For assay [2], the target named is β1 receptors, guinea pig right atria (Cavia porcellus, UniProt H0W3H1). Description: cell-based. As to the method: Each tissue was suspended between a fixed glass rod and a Statham Universal Transducer connected to a Beckman recorder. Atria were allowed to beat spontaneously under a loading tension of approximately 0.5 gm. Intrinsic depressant or stimulant activity was determined for each compound by progressively increasing concentrations in the tissue baths at 60-minute intervals. Tissues were not washed between increments. The maximum concentration showing little or no cardiodepressant activity was chosen for blockade experiments. Changes in rate in response to isoproterenol, a standard β-receptor agonist, were measured in the absence and presence of test compounds. Spiral strips of guinea pig trachea were suspended under 5 gm resting tension and incubated with phentolamine, tropolone and cocaine. Active tension was generated by addition of carbachol (3.0×10^-7 M) and decreases in tension in response to isoproterenol were quantitated. Cumulative concentration-response curves were produced with isoproterenol both before and after 60-minute incubation of test compounds with atria and trachea. […] The blocking potency of test compounds was estimated by computing pA2 values (-log KB) by the method of Furchgott, the Pharmacological Differentiation of Adrenergic Receptors, Ann. […] The degree of cardioselectivity was estimated from the ratio, KB trachea/KB atria (10^(pA2 atria-pA2 trachea)). A ratio greater than one indicates cardioselectivity. Test drugs were dissolved in distilled water and added to the bath (30 ml) in a volume of 10 or 100 μl.
β1 receptors, guinea pig right atria, sequence (H0W3H1 1-470): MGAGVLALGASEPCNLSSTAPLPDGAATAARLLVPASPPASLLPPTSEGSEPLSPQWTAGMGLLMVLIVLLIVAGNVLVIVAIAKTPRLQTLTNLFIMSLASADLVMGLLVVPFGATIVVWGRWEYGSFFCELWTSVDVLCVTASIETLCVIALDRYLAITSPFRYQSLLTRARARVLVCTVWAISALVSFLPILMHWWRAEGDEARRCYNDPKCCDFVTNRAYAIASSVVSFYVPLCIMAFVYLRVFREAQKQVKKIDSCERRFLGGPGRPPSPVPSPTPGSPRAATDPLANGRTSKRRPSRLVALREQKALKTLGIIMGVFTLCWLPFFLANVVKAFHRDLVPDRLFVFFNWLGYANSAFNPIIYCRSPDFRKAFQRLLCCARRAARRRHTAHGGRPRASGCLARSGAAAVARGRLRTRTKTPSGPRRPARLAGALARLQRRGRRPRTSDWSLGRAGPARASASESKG

The subject of assay [3] is heart rate response to isoproterenol. Description: Duration and potency of beta-blocking action in vivo, 3-hour infusion in anesthetized dogs, isoproterenol challenge. More on the design: species or system dog. The following applies: for Duration, time for 50% recovery from 50% blockade levels: Table IV, after infusion of drug, mean ± SEM; for Recovery Time 50%: 50% recovery from β-blockade after termination of infusion; for Recovery Time 80%: 80% recovery from β-blockade after termination of infusion; for % I, percent inhibition of heart rate response to isoproterenol: end of 3-hour infusion, isoproterenol 0.5 μg/kg. On the procedure: The duration of β-blockade was determined In vivo using pentobarbital-anesthetized dogs instrumented for measurement of heart rate using a Beckman cardiotachometer triggered electronically by a phasic aortic blood pressure signal. Both vagus nerves were served in the cervical region and the animals were mechanically ventilated. The experimental design used employed a 3-hour infusion of test compound. Bolus doses of isoproterenol (0.5 μg/kg) were used to assess the degree of β-blockade and recovery from β-blockade after […] of the infusion. The doses were spaced at 10-minute intervals and were given before, during and following the infusion of test compounds. The infusion rate was adjusted so that at the end of the 3-hour infusion period the degree of isoproterenol inhibition averaged about 50% of control. Following termination of blocker infusion, percent recovery from β-blockade was computed and the time associated with 80% recovery estimated.
^c Time in minutes for 50% recovery from 50% blockade levels after 3
Infusions of drug. Number of experiments is equal to or greater than thre
for each compound unless noted otherwise. Tabulated data are mean values
^c The betablocking activities were evaluated Invivo in a canine
model. The betablocker was infused in the animal for 3 hours with the dos
adjusted to give approximately 50%. blockage of the Isoproternolinduced
tachycardia. The infusion was then terminated and the time required for
80% recovery of blockade was recorded as duration of action of the
compound. The amount of drug infused during the 3 hours was averaged and
expressed as potency in ug/kg/min.

Assay [4] deals with β-adrenergic receptors, guinea pig trachea vs right atria. Description: Cardioselectivity, KB trachea/KB atria. Type of assay: cell-based. The following applies: 10^(pA2 atria-pA2 trachea); ratio greater than one indicates cardioselectivity.
Experimental: Each tissue was suspended between a fixed glass rod and a Statham Universal Transducer connected to a Beckman recorder. Atria were allowed to beat spontaneously under a loading tension of approximately 0.5 gm. Intrinsic depressant or stimulant activity was determined for each compound by progressively increasing concentrations in the tissue baths at 60-minute intervals. Tissues were not washed between increments. The maximum concentration showing little or no cardiodepressant activity was chosen for blockade experiments. Changes in rate in response to isoproterenol, a standard β-receptor agonist, were measured in the absence and presence of test compounds. Spiral strips of guinea pig trachea were suspended under 5 gm resting tension and incubated with phentolamine, tropolone and cocaine. Active tension was generated by addition of carbachol (3.0×10^-7 M) and decreases in tension in response to isoproterenol were quantitated. Cumulative concentration-response curves were produced with isoproterenol both before and after 60-minute incubation of test compounds with atria and trachea. […] The degree of cardioselectivity was estimated from the ratio, KB trachea/KB atria (10^(pA2 atria-pA2 trachea)). A ratio greater than one indicates cardioselectivity. Test drugs were dissolved in distilled water and added to the bath (30 ml) in a volume of 10 or 100 μl.
Setting [5] is: Table IV, mean, n ≥ 2, range ≤ ± 0.2 units.
[6] abbreviates: Table IV, mean, n ≥ 2, range ≤ ± 0.2 units, read-out: pA2 Trachea (converted).
Where [7] appears, read: Table IV, mean, n ≥ 2, range ≤ ± 0.2 units, read-out: pA2 Atria (converted).
The mark [8] stands for this setting: Table VI, read-out: pA2 Atria (converted).
Setting [9] is: Table V, guinea pig right atria (B1), read-out: In Vitro pA2 Atria (converted).
Setting [10] is: Table I, guinea pig right atria, vs isoproterenol, -log KB, read-out: PA2 Rt. Atria (converted).
[11] abbreviates: Table I, guinea pig trachea, vs isoproterenol, -log KB, read-out: PA2 Trachea (converted).

Consider 30 compounds from patent US4906661A, “Esters of aryloxypropanolamine derivatives” (E. I. Du Pont de Nemours and Company, priority 1989, dated 1990).

Several values for one entry are separate records, joined by “and”; a condition that tells them apart may be missing. Identical values can stand only once. Counter-ions that a name gives are not always drawn. Like-named read-outs stand apart in the source and are kept apart here.

β2 receptors, guinea pig trachea, sequence (Q8K4Z4 whole entry): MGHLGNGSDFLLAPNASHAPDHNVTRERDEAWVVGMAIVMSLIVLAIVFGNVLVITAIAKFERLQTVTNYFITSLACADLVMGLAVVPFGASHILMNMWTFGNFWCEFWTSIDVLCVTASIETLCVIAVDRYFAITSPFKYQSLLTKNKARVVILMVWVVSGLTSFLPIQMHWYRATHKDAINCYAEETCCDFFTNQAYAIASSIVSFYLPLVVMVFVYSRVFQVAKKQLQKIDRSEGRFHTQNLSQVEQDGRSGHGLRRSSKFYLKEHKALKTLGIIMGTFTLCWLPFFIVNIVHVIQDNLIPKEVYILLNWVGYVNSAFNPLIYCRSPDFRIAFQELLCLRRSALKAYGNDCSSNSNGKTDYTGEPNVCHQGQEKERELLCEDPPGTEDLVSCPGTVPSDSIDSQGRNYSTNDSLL

As to `CCOC(=O)CCc1ccc(OCC(O)CNC(C)(C)CNS(=O)(=O)N(C)C)cc1` (stereo not shown) [No. 15 (Table IV)], the “pA2 Trachea” value in assay [1] (setting [5]) was 6.5. Further, the Kb in assay [1] (setting [6]) was 0.316 µM; in assay [2] (setting [7]), 1.58 µM. Moreover, in assay [2] (setting [5]), the “pA2 Atria” value is recorded as 5.8.
On to `CCOC(=O)CCc1ccc(OCC(O)CNCCNS(=O)(=O)c2ccc(C)cc2)cc1` (stereo not shown) [No. 17 (Table IV)], for which the Kb was 6.31 µM in assay [1] (setting [6]) and 1 µM in assay [2] (setting [7]).
As to `CCOC(=O)CCc1nsnc1OCC(O)CNC(C)CNC(C)=O` (stereo not shown) [No. 4 (Table VI)], the Kb in assay [2] (setting [8]) was 0.1 µM.
With `CCOC(=O)CCc1ccc(OCC(O)CNC(C)(C)CNC(=O)N2CCOCC2)cc1` (stereo not shown) [No. 19 (Table IV)], the results for the Kb in assay [1] (setting [6]) and in assay [2] (setting [7]) were 0.2 µM and 0.0158 µM, respectively. For the same compound, in assay [3], the “Duration, time for 50% recovery from 50% blockade levels” value (from here on “Duration, time for 50% recovery”) came to 21 ± 4 min.
In the case of `CC(C)NCC(O)COc1cccc2ccccc12` (stereo not shown) [Propranolol, reference compound], the Potency in assay [3] (Table II, 3-hour infusion, dog) turned out to be 0.225 mg/kg/180 min. In addition, in assay [3] (Table II), the “Recovery Time 50%” value is greater than 60 min; the “Recovery Time 80%” value was greater than 60 min; the “% I, percent inhibition of heart rate response to isoproterenol” value (from here on “% I, percent inhibition”) came out at 67 ± 6%. The “Duration, time for 50% recovery” value in assay [3] is greater than 60 min.
In the case of `CCOC(=O)CCc1nsnc1OCC(O)CNCCNC(=O)C(C)C` (stereo not shown) [No. 1 (Table V)], in assay [2] (setting [9]), the Kb is 0.1 µM.
Consider `CCOC(=O)CCc1nsnc1OCC(O)CNCCNC(=O)Cc1ccccc1` (stereo not shown) [No. 6 (Table VI)], for which the Kb in assay [2] (setting [8]) is 0.0794 µM.
Same read-out and setting: the figure for `CCOC(=O)CCc1nsnc1OCC(O)CNC(C)(C)CNC(=O)OCC` (stereo not shown) [No. 1 (Table VI)] is 0.0631 µM.
Take `CCOC(=O)c1ccccc1OCC(O)CNCCNS(=O)(=O)c1ccc(C)cc1` (stereo not shown) [Example 5]: the results for the Kb in assay [1] (setting [6]) and in assay [2] (setting [7]) were 0.0251 µM and 0.158 µM, respectively.
For `CC(C)(C)NC[C@H](O)COc1nsnc1N1CCOCC1` [Timolol, reference compound], the “Duration, time for 50% recovery” value in assay [3] was greater than 60 min.
For the compound `COC(=O)c1ccccc1OCC(O)CNC(C)(C)CNC(=O)N1CCOCC1` (stereo not shown) [Example VI, Methyl 2-[2-Hydroxy-3-[N-[1,1-dimethyl-2-(1-morpholinocarbonylamino)ethyl]amino]propoxy]benzoate Oxalate], in assay [3] (Table II), the “Recovery Time 50%” value was greater than 60 min; the “Recovery Time 80%” value was greater than 60 min; the “% I, percent inhibition” value is 93% and 89%. Also, the Kb in assay [2] (setting [10]) is less than 0.001 µM.
Turning to `COC(=O)c1ccccc1OCC(O)CNC(C)(C)CNS(=O)(=O)c1ccccc1` (stereo not shown) [VIII, Methyl 2-[2-Hydroxy-3-[N-[1,1-dimethyl-2-(phenylsulfonylamino)ethyl]amino]proxy]benzoate Oxalate], the Kb in assay [1] (setting [11]) is 0.00158 µM. Also, in assay [3] (Table II), the “Recovery Time 50%” value was determined as 26 ± 6 min; the “Recovery Time 80%” value is greater than 60 min; the “% I, percent inhibition” value is listed as 74%.
For the compound `CCOC(=O)c1ccccc1OCC(O)CNCCNC(=O)C(C)C` (stereo not shown) [Example 1], the figures for the Kb in assay [1] (setting [6]) and in assay [2] (setting [7]) were 0.02 µM and 0.00316 µM, respectively.
For `CCOC(=O)CCc1ccc(OCC(O)CNC(C)(C)CNC(N)=O)cc1` (stereo not shown) [No. 13 (Table IV)], the Kb in assay [1] (setting [6]) was 0.398 µM; in assay [2] (setting [7]), 1 µM. Further, in assay [3], the “Duration, time for 50% recovery” value worked out at 12 ± 4 min.
Turning to `CCOC(=O)CCc1nsnc1OCC(O)CNCCNC(C)=O` (stereo not shown) [No. 3 (Table VI)], the Kb in assay [2] (setting [8]) was 0.501 µM.
Consider `CCOC(=O)NCC(C)(C)NCC(O)COc1ccccc1C(=O)OCC` (stereo not shown) [Example 2], for which the Kb was 0.01 µM in assay [1] (setting [6]) and 0.00501 µM in assay [2] (setting [7]).
As for `CCOC(=O)CCc1ccc(OCC(O)CNC(C)(C)CNC(=O)C2CCCCC2)cc1` (stereo not shown) [No. 11 (Table IV)], the Kb in assay [1] (setting [6]) is 0.398 µM.
Turning to `CCOC(=O)CCc1nsnc1OCC(O)CNC(C)(C)CNC(=O)C(C)C` (stereo not shown) [No. 2 (Table V)], in assay [2] (setting [9]), the Kb is 0.00631 µM.
On to `CCOC(=O)CCc1ccc(OCC(O)CNC(C)(C)CNS(=O)(=O)c2ccccc2)cc1` (stereo not shown) [No. 18 (Table IV)], for which the results for the Kb in assay [1] (setting [6]) and in assay [2] (setting [7]) were 0.251 µM and 0.501 µM, respectively.
For `CCOC(=O)CCc1nsnc1OCC(O)CNC(C)(C)CNC(N)=O` (stereo not shown) [No. 2 (Table VI)], the Kb in assay [2] (setting [8]) was 0.0398 µM.
Regarding `COC(=O)c1ccccc1OCC(O)CNCCNS(=O)(=O)c1ccc(C)cc1.O=C(O)C(=O)O` (stereo not shown) [Example VII, Methyl 2-[2-Hydroxy-3-[N-[2-[N-(4-methylphenylsulfonyl)amino]ethyl]amino]propoxy]benzoate Oxalate], the Kb was 0.0794 µM in assay [1] (setting [11]) and 0.158 µM in assay [2] (setting [10]). The “Cardioselectivity KB (Trachea)/KB (Atria)” value in assay [4] is 2.
`CCOC(=O)CCc1ccc(OCC(O)CNCCNC(=O)Cc2ccccc2)cc1` (stereo not shown) [No. 12 (Table IV)]: the Kb is 1.26 µM in assay [1] (setting [6]) and 0.0316 µM in assay [2] (setting [7]). Further, the “Duration, time for 50% recovery” value in assay [3] came to 6 ± 4 min.
On to `CCOC(=O)CCc1ccc(OCC(O)CNC(C)(C)CNC(=O)OCC)cc1` (stereo not shown) [No. 14 (Table IV)], for which the Kb was 0.2 µM in assay [1] (setting [6]) and 0.794 µM in assay [2] (setting [7]).
As for `CCOC(=O)CCc1ccc(OCC(O)CNCCNS(=O)(=O)N(C)C)cc1` (stereo not shown) [No. 16 (Table IV)], the “pA2 Trachea” value in assay [1] (setting [5]) is on record as 5.7. Further, the “pA2 Atria” value in assay [2] (setting [5]) worked out at 5.8.
In the case of `CCOC(=O)c1ccccc1OCC(O)CNCCNS(=O)(=O)N(C)C` (stereo not shown) [Example 4], the Kb was 0.02 µM in assay [1] (setting [6]) and 0.0398 µM in assay [2] (setting [7]).
In the case of `CCOC(=O)CCc1ccc(OCC(O)CNCCNC(=O)C(C)C)cc1` (stereo not shown) [No. 10 (Table IV)], the Kb was 0.398 µM in assay [1] (setting [6]) and 0.794 µM in assay [2] (setting [7]). In addition, the “Duration, time for 50% recovery” value in assay [3] was determined as 6 ± 3 min.
As for `CCOC(=O)CCc1ccccc1OCC(O)CNCCNC(=O)C(C)C` (stereo not shown) [Example 6], the values for the Kb in assay [1] (setting [6]) and in assay [2] (setting [7]) were 0.02 µM and 0.0631 µM, respectively.
Consider `CCOC(=O)CCc1nsnc1OCC(O)CNC(C)(C)CNC(C)=O` (stereo not shown) [No. 5 (Table VI)], for which the Kb in assay [2] (setting [8]) is 0.0794 µM.
Same read-out and setting: then `CCOC(=O)CCc1nsnc1OCC(O)CNCCNS(=O)(=O)N1CCOCC1` (stereo not shown) [No. 7 (Table VI)], with 0.794 µM.
Turning to `CCOC(=O)CCc1ccc(OCC(O)CNCCNC(C)=O)cc1` (stereo not shown) [No. 9 (Table IV)], the results for the Kb in assay [1] (setting [6]) and in assay [2] (setting [7]) were 0.316 µM and 0.501 µM, respectively. Moreover, the “Duration, time for 50% recovery” value in assay [3] came to 10 ± 4 min.
